# Measured values from patent US20050107400A1, “Use of pyrazolopyridines as therapeutic compounds” (priority 2001, published 2005).
# Tested on: not given
# Assay: not given
# Settings: not given
row,melting point [°C],SMILES
1,155 to 156,"OCc1ccc2c(-c3ccnc(NC4CCCC4)n3)c(-c3ccc(F)cc3)nn2c1 [Example 33, [3-[2-(Cyclopentylamino)-4-pyrimidinyl]-2-(4-fluorophenyl)pyrazolo-[1,5-a]pyridin-6-yl]methanol]"
2,155 to 156,"CCOC(=O)c1ccc2c(-c3ccnc(NC4CCCC4)n3)c(-c3ccc(F)cc3)nn2c1C [Example 81, Ethyl 3-[2-(cyclopentylamino)-4-pyrimidinyl]-2-(4-fluorophenyl)-7-methylpyrazolo[1,5-a]pyridine-6-carboxylate]"

# Tested on: HSV-1
# Assay: HSV-1 replication in infected Vero 76 cells, DNA hybridization capture assay
# Assay type: cell-based, herpes simplex virus 1
# Settings: Human alphaherpesvirus 1; HSV-1 in Vero 76 cells, MOI=0.001, 40-48 hours at 37° C.; read-out: IC50
# Method: a) Tissue Culture and HSV Infection.
# Vero 76 cells were maintained in MEM with Earle's salts, L-glutamine, 8% FBS (Hyclone, A-1111-L) and 100 units/mL Penicillin-100 μg/mL Streptomycin. For assay conditions, FBS was reduced to 2%. Cells are seeded into 96-well tissue culture plates at a density of 5×10^4 cells/well after being incubated for 45 min at 37° C. in the presence of HSV-1 or HSV-2 (MOI=0.001). Test compounds are added to the wells and the plates are incubated at 37° C. for 40-48 hours. Cell lysates are prepared as follows: media was removed and replaced with 150 μL/well 0.2 N NaOH with 1% Igepal CA 630 or NP-40. Plates were incubated up to 14 days at room temperature in a humidified chamber to prevent evaporation.
# (b) Preparation of Detection DNA.
# For the detection probe, a gel-purified, digoxigenin-labeled, […] PCR fragment of the HSV UL-15 sequence was utilized. PCR conditions included 0.5 μM primers, 180 μM dTTP, 20 μM dUTP-digoxigenin (Boehringer Mannheim 1558706), 200 μM each of dATP, dCTP, and dGTP, 1×PCR Buffer II (Perkin Elmer), 2.5 mM MgCl2, 0.025 units/μL of AmpliTaq Gold polymerase (Perkin Elmer), and 5 ng of gel-purified HSV DNA per 100 μL Extension conditions were 10 min at 95° C., followed by 30 cycles of 95° C. for 1 min, 55° C. for 30 sec, and 72° C. for 2 min. The amplification was completed with a 10-min incubation at 72° C. Primers were selected to amplify a 728 bp probe spanning a section of the HSV1 UL15 open reading frame (nucleotides 249-977). Single-stranded transcripts were purified with Promega M13 Wizard kits. The final product was mixed 1:1 with a mixture of 6 M GuSCN, 100 mM EDTA and 200 μg/mL herring sperm DNA and stored at 4° C.
# (c) Preparation of Capture Plates.
# The capture DNA plasmid (HSV UL13 region in pUC) was linearized by cutting with Xba I, denatured for 15 min at 95° C. and diluted immediately into Reacti-Bind DNA Coating Solution (Pierce, 17250, diluted 1:1 with TE buffer, pH 8) at 1 ng/μL. 75 μL/well were added to Corning (#3922 or 9690) white 96-well plates and incubated at room temperature for at least 4 hrs before washing twice with 300 μL/well 0.2×SSC/0.05% Tween-20 (SSC/T buffer). The plates were then incubated overnight at room temperature with 150 μL/well 0.2 N NaOH, 1% IGEPAL and 10 μg/mL herring sperm DNA.
# Twenty-seven (27) μL of cell lysate was combined with 45 μL of hybridization solution (final concentration: 3M GuSCN, 50 mM EDTA, 100 μg/ml salmon sperm DNA, 5×Denhardt's solution, 0.25×APE, and 5 ng of the digoxigenin-labeled detection probe). APE is 1.5 M NH4-acetate, 0.15 M NH4H2 phosphate, and 5 mM EDTA adjusted to pH 6.0. Mineral oil (50 μL) was added to prevent evaporation. The hybridization plates were incubated at 95° C. for 10 minutes to denature the DNA, then incubated at 42° C. overnight. The wells were washed 6× with 300 μL/well SSC/T buffer then incubated with 75 μL/well anti-digoxigenin-HRP-conjugated antibody (Boehringer Mannheim 1207733, 1:5000 in TE) for 30 min at room temperature. The wells were washed 6× with 300 μL/well with PBS/0.05% Tween-20 before 75 μL/well SuperSignal LBA substrate (Pierce) was added. The plates were incubated at room temperature for 30 minutes and chemiluminescence was measured in a Wallac Victor reader.
# The following results were obtained for HSV-1.
row,SMILES,IC50 [nM]
1,"CCCCCCCCc1cccc2c(-c3ccnc(NCCCC)n3)c(-c3ccc(F)cc3)nn12 [Example 86, N-Butyl-4-[2-(4-fluorophenyl)-7-octylpyrazolo[1,5-a]pyridin-3-yl]-2-pyrimidinamine]",6000
2,"CN(C)C(=O)c1cccc2c(-c3ccnc(NC4CC4)n3)c(-c3ccc(F)cc3)nn12 [Example 88, Dimethyl 2-(4-fluorophenyl)-3-(4-(2-cyclopropylamino)pyrimidinyl)-7-pyrazolo[1,5-a]pyridinylcarboxamide]",15000
3,"Fc1ccc(-c2nn3ccc(N4CCOCC4)cc3c2-c2ccnc(NC3CCCC3)n2)cc1 [Example 89, N-Cyclopentyl-4-[2-(4-fluorophenyl)-5-morpholin-4-ylpyrazolo[1,5-a]pyridin-3-yl]pyrimidin-2-amine]",3600
4,"CCCCOc1cc(-c2c(-c3ccc(F)cc3)nn3ccccc23)ccn1 [Example 91, 3-(2-Butoxypyridin-4-yl)-2-(4-fluorophenyl)pyrazolo[1,5-a]pyridine]",11000
5,"COc1ccc(-c2nn3ccccc3c2-c2ccnc(NC3CCCC3)n2)c(OC)c1 [Example 92, N-Cyclopentyl-4-[2-(2,4-dimethoxyphenyl)pyrazolo[1,5-a]pyridin-3-yl]pyrimidin-2-amine]",20000
6,"COc1ccc(-c2nn3cc(C(F)(F)F)ccc3c2-c2ccnc(NC3CC3)n2)cc1 [Example 95, N-Cyclopropyl-4-[2-(4-methoxyphenyl)-6-(trifluoromethyl)pyrazolo[1,5-a]pyridin-3-yl]pyrimidin-2-amine]",27000
7,"CCOC(OCC)(OCC)c1ccc2c(-c3ccnc(NC4CC4)n3)c(-c3ccc(OC)cc3)nn2c1 [Example 96, N-Cyclopropyl-4-[2-(4-methoxyphenyl)-6-(triethoxymethyl)pyrazolo[1,5-a]pyridin-3-yl]pyrimidin-2-amine]",5500
8,"CCOC(=O)c1ccc2c(-c3ccnc(NC4CC4)n3)c(-c3ccc(OC)cc3)nn2c1 [Example 97, Ethyl 3-[2-(cyclopropylamino)pyrimidin-4-yl]-2-(4-methoxyphenyl)-pyrazolo[1,5-a]pyridine-6-carboxylate]",16000
9,"CCCCOc1cccc2c(-c3ccnc(NC4CCCC4)n3)c(-c3ccc(OC)cc3)nn12 [Example 228, 4-[7-Butoxy-2-(4-methoxyphenyl)pyrazolo[1,5-a]pyridin-3-yl]-N-cyclopentyl-2-pyrimidinamine]",280

# Now from value to molecule:
row,IC50 [nM],SMILES
1,2500,"OCc1ccc2c(-c3ccnc(NC4CCCC4)n3)c(-c3ccc(F)cc3)nn2c1 [Example 33, [3-[2-(Cyclopentylamino)-4-pyrimidinyl]-2-(4-fluorophenyl)pyrazolo-[1,5-a]pyridin-6-yl]methanol]"
2,3000,"CCc1cccc2c(-c3ccnc(NC4CC4)n3)c(-c3ccc(F)cc3)nn12 [Example 87, N-Cyclopropyl-4-[7-ethyl-2-(4-fluorophenyl)pyrazolo[1,5-a]pyridin-3-yl]-2-pyrimidinamine]"
3,1900,"CN(C)CCCNc1nccc(-c2c(-c3ccc(F)cc3)nn3cc(C(F)(F)F)ccc23)n1 [Example 90, N^1-{4-[2-(4-Fluorophenyl)-6-trifluoromethylpyrazolo[1,5-a]pyridin-3-yl]pyrimidin-2-yl}-N^3,N^3-dimethylpropane-1,3-diamine]"
4,2600,"Fc1ccc(-c2nn3ccc(Cl)cc3c2-c2nc(NC3CCCC3)ncc2Br)cc1 [Example 93, 5-Bromo-4-[5-chloro-2-(4-fluorophenyl)pyrazolo[1,5-a]pyridin-3-yl]-N-cyclopentyl pyrimidin-2-amine]"
5,1100,"COCCNC(=O)c1ccc2c(-c3ccnc(NC4CC4)n3)c(-c3ccc(OC)cc3)nn2c1 [Example 98, 3-[2-(Cyclopropylamino)pyrimidin-4-yl]-N-(2-methoxyethyl)-2-(4-methoxyphenyl)pyrazolo[1,5-a]pyridine-6-carboxamide]"
6,1000,"CSc1cc(Cl)cc2c(-c3ccnc(NC4CCCC4)n3)c(-c3cccc(Cl)c3)nn12 [Example 229, 4-[5-Chloro-2-(3-chlorophenyl)-7-(methylsulfanyl)pyrazolo[1,5-a]pyridin-3-yl]-N-cyclopentyl-2-pyrimidinamine]"
7,1300,"CSc1cccc2c(-c3cc(NC4CCCC4)ncn3)c(-c3ccc(F)cc3)nn12 [Example 230, N-cyclopentyl-6-[2-(4-fluorophenyl)-7-(methylthio)pyrazolo[1,5-a]pyridin-3-yl]pyrimidin-4-amine]"
8,900,"CC(C)Sc1cc(N2CCOCC2)cc2c(-c3ccnc(NC4CCCC4)n3)c(-c3ccc(F)cc3)nn12 [Example 232, N-Cyclopentyl-4-[2-(4-fluorophenyl)-7-(isopropylthio)-5-morpholin-4-ylpyrazolo[1,5-a]pyridin-3-yl]pyrimidin-2-amine]"
